Results reported in patent US20070141158A1, “Amphiphilic heparin derivative formed by coupling a heparin with a bile acid” (ETHYPHARM, priority 2003, published 2007).

Experiment: Incorporation (solubilization) of hydrophobic active ingredients into aqueous solution of heparin hydrophobized with cholic acid (HEP19CHO), dissolution method
Assay type: physicochemical
Conditions: for increase of quantity in solution: HEP19CHO (Cp=8.6 mg/ml) after 6 days of incorporation, versus water (FIG. 4)
Protocol: An example of a method of incorporation by direct dissolution is described below. 30 mg of hydrophobized heparin are introduced into a tube and 3 ml of distilled water are added thereto. After dissolution, a large excess of active ingredient (15 to 30 mg) is introduced into the mixture.
A phase of stirring the mixture obtained is carried out by means of a magnetic stirrer bar for several days. The mixture is then centrifuged and the supernatant is passed through a 0.45 μm filter. The quantity of active ingredient solubilized in the solutions of hydrophobized heparin may be determined by UV/visible spectroscopy or by HPLC.
The nonsolubilized active ingredient is removed after filtration of the solutions on a membrane having a porosity of 0.45 μm. The quantity of active ingredient in solution is then determined. Having determined the quantities solubilized in water and those dissolved in the hydrophobic domains, it is then possible to calculate a partition coefficient hydrophobic domains/water which is called Log P′ by analogy with Log P.
Indeed, the relative solubility of molecules between an oily phase and an aqueous phase is described by the partition coefficient P which represents the distribution of the molecules between two solvents, generally water and octanol. The use of its logarithm, log P, is often preferred. […] Likewise for Log P′ which expresses the ratio of the solubilities of the active agent in water and in the solution of hydrophobized heparin.
The incorporation of active ingredients was essentially carried out by the dissolution method. In this method, the compound to be incorporated is placed in solid form in a tube containing water or a colloidal solution of hydrophobized heparin, at the concentration Cp (mg/ml).
The mixing is performed with stirring at room temperature for various times. The compound to be incorporated remains at saturating concentration in the medium. At the end of the incorporation period, the tubes are subjected to a centrifugation step and the supernatants are filtered on 0.45 μm filters and assayed. Control solutions (water or nonhydrophobized heparin) are treated in the same manner.
The quantity of active ingredient incorporated into the various media is quantified by HPLC and/or by measuring the UV absorbance.
Thus, the incorporation is expressed in milligram of active ingredient per gram of polymer (mg/g P) or in micromole of active ingredient per gram of polymer (μmol/g P). This incorporation level is calculated by taking the ratio between the concentration of the active ingredient in solution and the concentration of the polymer. […] The difference in concentration of active ingredients in water and in a solution of hydrophobized heparin represents the quantity of active ingredient effectively present in hydrophobic micro-domains formed by the grouping together of cholic acid residues.

Structure (SMILES)	increase of quantity in solution	times as soluble in a solution of hydrophobized heparin as in water (HEP19CHO solution versus water)	level of incorporation into the hydrophobic domains (HEP19CHO 8 mg/ml, after 3 days)	gain in solubility relative to water (HEP19CHO calcium salt, 8 mg/ml, after 3 days (FIG. 3))	concentration of carbamazepine present in the hydrophobic domains (HEP19CHO solution 8 mg/ml, after 3 days, HEP19CHO solution minus aqueous phase)	affinity for the hydrophobic domains (among the molecules tested) (HEP19CHO, Table 5 molecules)
CCC(C)n1ncn(-c2ccc(N3CCN(c4ccc(OCC5COC(Cn6cncn6)(c6ccc(Cl)cc6Cl)O5)cc4)CC3)cc2)c1=O (stereo not shown) [Itraconazole]	> 2000 fold	more than 2000 times	–	–	–	–
NC(=O)N1c2ccccc2C=Cc2ccccc21 [Carbamazepine]	increased ten fold	–	70 mg/g P	exceeds 500%	560 µg/mL	highest affinity for the hydrophobic domains
